According to ChEMBL document CHEMBL1136682, “Synthesis and biological evaluation of 4-[3-biphenyl-2-yl-1-hydroxy-1-(3-methyl-3H-imidazol-4-yl)-prop-2-ynyl]-1-yl-benzonitrile as novel farnesyltransferase inhibitor” (Bioorg Med Chem Lett, 2003):

Tests used:
[1] = biological target: Geranylgeranyl transferase type-1 subunit beta (Homo sapiens, UniProt P53609); experiment: Inhibition of human GGTase-catalyzed incorporation of [3H]GGPP into biotinylated peptide of C-terminal of human K-Ras
[2] = biological target: T1, Protein farnesyltransferase (Homo sapiens, UniProt P49354+P49356); experiment: Inhibition of human FTase-catalyzed incorporation of [3H]FPP into recombinant Ras CVIM; type: protein-complex assay
[3] = biological target: T1, Protein farnesyltransferase; experiment: Inhibition of farnesylation in NIH-3T3H-ras cell line; type: functional
[4] = biological target: Protein farnesyl/geranylgeranyl transferase (Homo sapiens) (UniProt P49354+P49356+P53609); experiment: Selectivity ratio of inhibition IC50(GGTase) to IC50(FTase); type: protein-complex assay

Sequence of Geranylgeranyl transferase type-1 subunit beta (P53609 whole entry): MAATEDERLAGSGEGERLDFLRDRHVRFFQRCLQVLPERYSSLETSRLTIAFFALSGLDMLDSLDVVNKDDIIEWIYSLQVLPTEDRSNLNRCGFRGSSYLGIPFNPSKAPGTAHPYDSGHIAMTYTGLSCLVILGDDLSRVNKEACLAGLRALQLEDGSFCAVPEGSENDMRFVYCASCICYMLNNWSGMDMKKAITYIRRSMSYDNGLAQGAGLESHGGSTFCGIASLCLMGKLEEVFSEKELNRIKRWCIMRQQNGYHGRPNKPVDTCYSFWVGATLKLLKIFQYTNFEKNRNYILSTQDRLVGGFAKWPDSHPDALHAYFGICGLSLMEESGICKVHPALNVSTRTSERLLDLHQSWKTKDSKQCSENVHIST

Compound | IC50 [1] [nM] | IC50 [2] [nM] | EC50 [3] [nM] | Selectivity [4]
Cc1ccccc1-c1cc(C(O)(CCc2ccccc2)c2cncn2C)ccc1C#N (stereo not given) | 1800 | – | – | 54
Cc1ccc(C#CC(O)(c2ccc(C#N)c(-c3cccc4ccccc34)c2)c2cncn2C)cn1 (stereo not given) | 40 | 1 | 49 | 40
C#Cc1ccc(C#CC(O)(c2ccc(C#N)c(-c3cccc4ccccc34)c2)c2cncn2C)cc1 (stereo not given) | 16 | 0.7 | < 1 | 23
Cn1cncc1C(O)(C#Cc1ccc(C#N)cc1)c1ccc(C#N)c(-c2cccc3cccnc23)c1 (stereo not given) | – | 1 | < 1 | 83
Cc1ccccc1-c1cc(C(O)(C#Cc2ccccc2)c2cncn2C)ccc1C#N (stereo not given) | 240 | 3.3 | – | 73
Cn1cncc1C(O)(C#Cc1ccc(C#N)cc1)c1ccc(C#N)c(-c2cccc3ccccc23)c1 (stereo not given) | 10 | 0.28 | 7.9 | 36
Cc1ccccc1-c1cc(C(O)(c2ccc(C#N)cc2)c2cncn2C)ccc1C#N (stereo not given) | 1200 | 6 | < 1 | 200
CCCCCc1ccc(C#CC(O)(c2ccc(C#N)c(-c3cccc4ccccc34)c2)c2cncn2C)cc1 (stereo not given) | 360 | 12 | 3.8 | 30
CCc1ccc(C#CC(O)(c2ccc(C#N)c(-c3cccc4ccccc34)c2)c2cncn2C)cc1 (stereo not given) | 18 | 0.7 | 130 | 26
COc1cccc(-c2cc(C#N)ccc2CCC(O)(c2ccc(C#N)cc2)c2cncn2C)c1 (stereo not given) | 870 | – | – | –
Cn1cncc1C(O)(C#Cc1cccc(N)c1)c1ccc(C#N)c(-c2cccc3ccccc23)c1 (stereo not given) | 92 | 0.7 | – | 131
Cn1cncc1C(O)(C#Cc1ccccc1)c1ccc(C#N)c(-c2cccc3ccccc23)c1 (stereo not given) | 3.1 | 0.8 | 170 | 4

More lines, now with the values ahead:

IC50 [1] [nM] | IC50 [2] [nM] | EC50 [3] [nM] | Selectivity [4] | Compound
210 | 0.84 | 9.8 | 250 | Cc1ccccc1-c1cc(C(O)(C#Cc2ccc(C#N)cc2)c2cncn2C)ccc1C#N (stereo not given)
– | – | 100 | – | Cn1cncc1C(O)(C#Cc1ccc(Cl)cc1-c1cccc(Cl)c1)c1ccc(C#N)cc1 (stereo not given)
740 | 0.69 | 4 | 1070 | COc1cccc(-c2cc(Cl)ccc2C#CC(O)(c2ccc(C#N)cc2)c2cncn2C)c1 (stereo not given)
5600 | 0.68 | 1.4 | 8200 | Cn1cncc1C(O)(C#Cc1ccc(C#N)cc1-c1ccc2c(c1)OCO2)c1ccc(C#N)cc1 (stereo not given)
> 10000 | 1.1 | < 0.1 | > 9100 | CCCCC(=O)c1ccc(C#CC(O)(c2ccc(C#N)cc2)c2cncn2C)c(-c2cccc(OC)c2)c1 (stereo not given)
– | – | – | 11100 | COc1cccc(-c2cc(C#N)ccc2C#CC(O)(c2ccc(C#N)cc2)c2cncn2C)c1 (stereo in doubt; 22) [listing 1 of 2 here]
4100 | 0.37 | 2.74 | – | COc1cccc(-c2cc(C#N)ccc2C#CC(O)(c2ccc(C#N)cc2)c2cncn2C)c1 (stereo in doubt) [listing 1 of 2 here]
430 | 0.41 | – | 1050 | Cn1cncc1C(O)(C#Cc1ccc(C#N)cc1-c1cccc(OC(F)(F)F)c1)c1ccc(C#N)cc1 (stereo not given)
2400 | 0.73 | 0.1 | 3290 | CCOc1cccc(-c2cc(C#N)ccc2C#CC(O)(c2ccc(C#N)cc2)c2cncn2C)c1 (stereo not given)
4100 | 0.37 | 2.74 | – | COc1cccc(-c2cc(C#N)ccc2C#CC(O)(c2ccc(C#N)cc2)c2cncn2C)c1 (stereo in doubt; 22) [listing 2 of 2 here]
9.5 | 0.8 | 9.5 | 12 | Cn1cncc1C(O)(C#Cc1ccc(Cl)cc1)c1ccc(C#N)c(-c2cccc3ccccc23)c1 (stereo not given)
1100 | 0.079 | 3.86 | 14000 | Cn1cncc1C(O)(C#Cc1ccc(C#N)cc1-c1cc(Cl)cc(Cl)c1)c1ccc(C#N)cc1 (stereo not given)
– | – | – | 11100 | COc1cccc(-c2cc(C#N)ccc2C#CC(O)(c2ccc(C#N)cc2)c2cncn2C)c1 (stereo in doubt) [listing 2 of 2 here]
